This experiment has as its target wild-type human cardiac sodium channel, hNav1.5 (late sodium current) in HEK293 cells (Homo sapiens, UniProt Q14524). Nature of the experiment: Late INa screening assay (automated whole-cell patch clamp, PatchXpress). The note with it: HEK293, compound at 1 μM; late INa generated with 10 μM Tefluthrin (or 50 nM ATX II); HEK293 hNav1.5; read-out: Late INa 1 μM (percent block of late INa). The format is cell-based. Summed up:
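Percent block was derived from mean current 225–250 ms into a 250 ms depolarisation to −20 mV (holding −120 mV, every 10 s), normalised to the current left in Na-free solution. Whole-cell recordings came from HEK293 cells stably expressing α-subunit-only hNav1.5, at 24–27 °C. Late current was enhanced with 10 μM tefluthrin or 50 nM ATX II, then compound (typically 10 μM) was added three times over 7–8 min.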
A general note: The patch-clamp technique gives a direct electrical read-out from membranes.

Consider 24 compounds from patent publication US9079901B2, “Fused heterocyclic compounds as ion channel modulators” (Gilead Sciences, Inc., priority 2010, dated 2015).

wild-type human cardiac sodium channel, hNav1.5 (late sodium current) in HEK293 cells, sequence (Q14524 whole entry): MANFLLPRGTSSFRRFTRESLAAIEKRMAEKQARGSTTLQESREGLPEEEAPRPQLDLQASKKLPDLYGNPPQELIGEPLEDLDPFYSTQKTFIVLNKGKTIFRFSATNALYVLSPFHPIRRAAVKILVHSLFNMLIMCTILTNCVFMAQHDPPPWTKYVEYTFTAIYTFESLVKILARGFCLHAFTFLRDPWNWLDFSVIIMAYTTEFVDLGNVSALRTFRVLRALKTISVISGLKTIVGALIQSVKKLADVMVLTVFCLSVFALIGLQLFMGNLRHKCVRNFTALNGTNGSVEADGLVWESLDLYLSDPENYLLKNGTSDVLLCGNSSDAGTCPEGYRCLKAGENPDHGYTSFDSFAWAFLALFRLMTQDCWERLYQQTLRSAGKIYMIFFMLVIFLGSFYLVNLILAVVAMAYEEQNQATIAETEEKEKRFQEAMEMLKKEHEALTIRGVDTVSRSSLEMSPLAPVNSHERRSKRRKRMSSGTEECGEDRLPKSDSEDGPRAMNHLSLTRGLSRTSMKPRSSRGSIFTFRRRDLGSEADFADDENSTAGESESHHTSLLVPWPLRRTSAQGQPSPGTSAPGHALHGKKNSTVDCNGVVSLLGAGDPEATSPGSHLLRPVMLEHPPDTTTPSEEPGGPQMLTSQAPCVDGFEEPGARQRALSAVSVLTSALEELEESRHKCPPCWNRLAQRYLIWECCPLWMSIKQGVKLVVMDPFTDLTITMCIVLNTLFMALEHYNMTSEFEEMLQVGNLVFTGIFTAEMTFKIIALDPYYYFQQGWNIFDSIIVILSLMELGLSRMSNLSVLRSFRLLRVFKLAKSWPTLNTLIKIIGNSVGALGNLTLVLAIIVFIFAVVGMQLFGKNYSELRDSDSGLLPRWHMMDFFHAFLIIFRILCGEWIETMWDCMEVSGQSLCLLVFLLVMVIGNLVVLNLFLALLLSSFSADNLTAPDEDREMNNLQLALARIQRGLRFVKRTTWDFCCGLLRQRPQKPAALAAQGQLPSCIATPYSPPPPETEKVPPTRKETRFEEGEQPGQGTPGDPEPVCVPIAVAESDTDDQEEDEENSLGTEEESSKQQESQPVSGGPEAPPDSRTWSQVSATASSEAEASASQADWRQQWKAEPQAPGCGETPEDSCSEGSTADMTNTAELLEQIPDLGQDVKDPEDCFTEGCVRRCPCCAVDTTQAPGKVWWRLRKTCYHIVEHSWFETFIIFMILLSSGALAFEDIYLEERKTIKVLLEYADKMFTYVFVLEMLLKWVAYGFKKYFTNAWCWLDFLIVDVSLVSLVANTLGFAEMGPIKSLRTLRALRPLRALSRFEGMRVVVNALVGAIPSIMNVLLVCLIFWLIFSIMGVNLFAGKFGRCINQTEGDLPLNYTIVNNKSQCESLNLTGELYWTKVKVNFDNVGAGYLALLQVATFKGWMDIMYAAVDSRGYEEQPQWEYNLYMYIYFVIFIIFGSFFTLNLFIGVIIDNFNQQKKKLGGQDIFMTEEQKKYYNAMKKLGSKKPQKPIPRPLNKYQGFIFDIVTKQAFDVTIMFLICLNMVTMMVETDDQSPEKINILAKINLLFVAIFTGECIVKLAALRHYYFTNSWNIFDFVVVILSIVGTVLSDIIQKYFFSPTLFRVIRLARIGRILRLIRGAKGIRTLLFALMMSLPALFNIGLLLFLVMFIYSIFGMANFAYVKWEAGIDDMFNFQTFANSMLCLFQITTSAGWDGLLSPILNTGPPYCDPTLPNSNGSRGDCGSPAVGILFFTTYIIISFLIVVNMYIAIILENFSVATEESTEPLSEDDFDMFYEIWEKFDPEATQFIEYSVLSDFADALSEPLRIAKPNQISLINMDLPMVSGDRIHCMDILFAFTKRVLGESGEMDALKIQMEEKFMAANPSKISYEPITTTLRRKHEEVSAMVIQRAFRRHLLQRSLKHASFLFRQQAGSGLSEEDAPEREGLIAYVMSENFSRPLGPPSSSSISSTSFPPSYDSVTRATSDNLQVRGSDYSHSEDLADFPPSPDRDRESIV

Take `O=c1n(Cc2ncc(C3CC3)o2)nc2ccc(-c3ccc(OC(F)(F)F)cc3)cn12` [compound 199, 2-((5-cyclopropyloxazol-2-yl)methyl)-6-(4-(trifluoromethoxy)phenyl)-[1,2,4]triazolo[4,3-a]pyridin-3(2H)-one]: the inhibition at 1 µM amounted to 22.5%. Then `O=c1n(CCN2CCC(F)(F)CC2)nc2ccc(-c3ccc(OC(F)(F)F)cc3)cn12` [compound 50, 2-(2-(4,4-difluoropiperidin-1-yl)ethyl)-6-(4-(trifluoromethoxy)phenyl)-[1,2,4]triazolo[4,3-a]pyridin-3(2H)-one], with 14.2%; and `COc1cc(F)ccc1OCCCn1nc2ccc(-c3ccc(OC(F)(F)F)cc3)cn2c1=O` [compound 67, 2-(3-(4-fluoro-2-methoxyphenoxy)propyl)-6-(4-(trifluoromethoxy)phenyl)-[1,2,4]triazolo[4,3-a]pyridin-3(2H)-one], with 19.2%. On to `O=c1n(CCOc2nccc(-c3ccccc3)n2)nc2ccc(-c3ccc(OC(F)(F)F)cc3)cn12` [compound 115, 2-(2-(4-phenylpyrimidin-2-yloxy)ethyl)-6-(4-(trifluoromethoxy)phenyl)-[1,2,4]triazolo[4,3-a]pyridin-3(2H)-one], for which the inhibition at 1 µM was found to be 22.9%.

Take `Cn1nc2ccc(-c3ccc(OC(F)(F)F)cc3)cn2c1=O` [compound 201, 2-methyl-6-(4-(trifluoromethoxy)phenyl)-[1,2,4]triazolo[4,3-a]pyridin-3(2H)-one]: the inhibition at 1 µM was found to be 38.7%. The result for `O=c1n(CCOc2cccnn2)nc2ccc(-c3ccc(OC(F)(F)F)cc3)cn12` [compound 81, 2-(2-(pyridazin-3-yloxy)ethyl)-6-(4-(trifluoromethoxy)phenyl)-[1,2,4]triazolo[4,3-a]pyridin-3(2H)-one] reads 11%. `O=c1n(CCOc2ncccn2)nc2ccc(-c3ccc(Oc4ccc(Cl)cc4)cc3)cn12` [compound 120, 6-(4-(4-chlorophenoxy)phenyl)-2-(2-(pyrimidin-2-yloxy)ethyl)-[1,2,4]triazolo[4,3-a]pyridin-3(2H)-one]: the inhibition at 1 µM was 73.9%.

Regarding `Cc1cnc(Cn2nc3ccc(-c4ccc(OC(F)(F)F)cc4)cn3c2=O)o1` [compound 25, 2-((5-methyloxazol-2-yl)methyl)-6-(4-(trifluoromethoxy)phenyl)-[1,2,4]triazolo[4,3-a]pyridin-3(2H)-one], the inhibition at 1 µM was found to be 30.3%. The result for `O=c1n(C2COCC2Oc2ncccn2)nc2ccc(-c3ccc(OC(F)(F)F)cc3)cn12` (stereo not drawn) [compound 109, 2-(4-(pyrimidin-2-yloxy)tetrahydrofuran-3-yl)-6-(4-(trifluoromethoxy)phenyl)-[1,2,4]triazolo[4,3-a]pyridin-3(2H)-one] reads 12.9%; that for `O=c1n(CCOc2ccccc2)nc2ccc(-c3ccc(OC(F)(F)F)cc3)cn12` [compound 28, 2-(2-phenoxyethyl)-6-(4-(trifluoromethoxy)phenyl)-[1,2,4]triazolo[4,3-a]pyridin-3(2H)-one], 46.3%. With `O=c1n(CCCOc2ccccc2)nc2ccc(-c3ccc(OC(F)(F)F)cc3)cn12` [compound 24, 2-(3-phenoxypropyl)-6-(4-(trifluoromethoxy)phenyl)-[1,2,4]triazolo[4,3-a]pyridin-3(2H)-one], the inhibition at 1 µM worked out at 25%. `O=c1n(Cc2nc(-c3c(Cl)cccc3Cl)no2)nc2ccc(-c3ccc(OC(F)(F)F)cc3)cn12` [compound 9, 2-((3-(2,6-dichlorophenyl)-1,2,4-oxadiazol-5-yl)methyl)-6-(4-(trifluoromethoxy)phenyl)-[1,2,4]triazolo[4,3-a]pyridin-3(2H)-one]: the inhibition at 1 µM was determined as 29.8%. For `Cc1cnc(OCCn2nc3ccc(-c4ccc(OC(F)(F)F)cc4)cn3c2=O)nc1` [compound 82, 2-(2-(5-methylpyrimidin-2-yloxy)ethyl)-6-(4-(trifluoromethoxy)phenyl)-[1,2,4]triazolo[4,3-a]pyridin-3(2H)-one], the inhibition at 1 µM worked out at 32.5%. As to `O=c1n(CCc2cc(C3CC3)ccn2)nc2ccc(-c3ccc(OC(F)(F)F)cc3)cn12` [compound 57, 2-(2-(4-cyclopropylpyridin-2-yl)ethyl)-6-(4-(trifluoromethoxy)phenyl)-[1,2,4]triazolo[4,3-a]pyridin-3(2H)-one], the inhibition at 1 µM is 20.7%.

As to `O=c1n(Cc2nc(Cc3ccccc3)no2)nc2ccc(-c3ccc(OC(F)(F)F)cc3)cn12` [compound 29, 2-((3-benzyl-1,2,4-oxadiazol-5-yl)methyl)-6-(4-(trifluoromethoxy)phenyl)-[1,2,4]triazolo[4,3-a]pyridin-3(2H)-one], the inhibition at 1 µM was 27.2%. Then `COc1ccc(Br)c(CCn2nc3ccc(-c4ccc(OC(F)(F)F)cc4)cn3c2=O)n1` [compound 118, 2-(2-(3-bromo-6-methoxypyridin-2-yl)ethyl)-6-(4-(trifluoromethoxy)phenyl)-[1,2,4]triazolo[4,3-a]pyridin-3(2H)-one], with 47.9%; and `O=c1n(CCOc2nccn3cccc23)nc2ccc(-c3ccc(OC(F)(F)F)cc3)cn12` [compound 135, 2-(2-(pyrrolo[1,2-a]pyrazin-1-yloxy)ethyl)-6-(4-(trifluoromethoxy)phenyl)-[1,2,4]triazolo[4,3-a]pyridin-3(2H)-one], with 41.5%. As for `Cc1nc(Cn2nc3ccc(-c4ccc(C(F)(F)F)cc4)cn3c2=O)no1` [compound 148, 2-((5-methyl-1,2,4-oxadiazol-3-yl)methyl)-6-(4-(trifluoromethyl)phenyl)-[1,2,4]triazolo[4,3-a]pyridin-3(2H)-one], the inhibition at 1 µM turned out to be 11.6%. Turning to `O=c1n(CCc2ncccn2)nc2ccc(-c3ccc(OC(F)(F)F)cc3)cn12` [compound 111, 2-(2-(pyrimidin-2-yl)ethyl)-6-(4-(trifluoromethoxy)phenyl)-[1,2,4]triazolo[4,3-a]pyridin-3(2H)-one], the inhibition at 1 µM was 18.6%. Then `O=c1n(CC2CCc3ccccc3O2)nc2ccc(-c3ccc(OC(F)(F)F)cc3)cn12` (stereo not drawn) [compound 77, 2-(chroman-2-ylmethyl)-6-(4-(trifluoromethoxy)phenyl)-[1,2,4]triazolo[4,3-a]pyridin-3(2H)-one], with 32.1%. Turning to `COC[C@@H](Cn1nc2ccc(-c3ccc(OC(F)(F)F)cc3)cn2c1=O)Oc1ncccc1C(F)(F)F` [compound 72, (R)-2-(3-methoxy-2-(3-(trifluoromethyl)pyridin-2-yloxy)propyl)-6-(4-(trifluoromethoxy)phenyl)-[1,2,4]triazolo[4,3-a]pyridin-3(2H)-one], the inhibition at 1 µM was determined as 41.9%. For the compound `COc1cnc(OCCn2nc3ccc(-c4ccc(OC(F)(F)F)cc4)cn3c2=O)nc1` [compound 116, 2-(2-(5-methoxypyrimidin-2-yloxy)ethyl)-6-(4-(trifluoromethoxy)phenyl)-[1,2,4]triazolo[4,3-a]pyridin-3(2H)-one], the inhibition at 1 µM was found to be 31.3%. Take `O=c1n(CCOc2nccn3ccnc23)nc2ccc(-c3ccc(OC(F)(F)F)cc3)cn12` [compound 174, 2-(2-(imidazo[1,2-a]pyrazin-8-yloxy)ethyl)-6-(4-(trifluoromethoxy)phenyl)-[1,2,4]triazolo[4,3-a]pyridin-3(2H)-one]: the inhibition at 1 µM was determined as 26.3%. With `Cc1nc(Cn2nc3ccc(-c4cccc(Oc5ccccc5)c4)cn3c2=O)no1` [compound 31, 2-((5-methyl-1,2,4-oxadiazol-3-yl)methyl)-6-(3-phenoxyphenyl)-[1,2,4]triazolo[4,3-a]pyridin-3(2H)-one], the inhibition at 1 µM turned out to be 24.4%.
